Test results: DBAASP
Converted amounts (≈) assume the structure as drawn. “And” between values parts separate entries of the source, which are not always exact repeats. Identical values can stand only once.

How the values were obtained:
Assay in all cases: ≥ marks a high value that may be exact or a test limit, other limits are often not marked, values filed in µg/mL are converted to µM
[1] = tested on: Bacillus amyloliquefaciens ATCC 23842
[2] = tested on: Bacillus cereus ATCC 14579
[3] = tested on: Bacillus licheniformis ATCC 14580
[4] = tested on: Bacillus subtilis ATCC 6051
[5] = tested on: Enterococcus faecalis 1F-1
Enterococcus faecalis A4 = tested on: Enterococcus faecalis A4
[6] = tested on: Enterococcus faecium 4W-9
[7] = tested on: Enterococcus faecium 5F-10
[8] = tested on: Escherichia coli ATCC 25922
[9] = tested on: Proteus mirabilis ATCC 35659
[10] = tested on: Pseudomonas aeruginosa PAO1
[11] = tested on: Salmonella enterica ATCC H9812
[12] = tested on: Staphylococcus aureus 215
[13] = tested on: Staphylococcus aureus ATCC 29213
Staphylococcus aureus MR = tested on: Staphylococcus aureus MR
Bacillus subtilis 168 HT = tested on: Bacillus subtilis 168 HT
Escherichia coli MG1655 = tested on: Escherichia coli MG1655
Acinetobacter baumannii = tested on: Acinetobacter baumannii
[14] = tested on: Bacillus cereus CGMCC 1.932
[15] = tested on: Bacillus subtilis CMCC 63501
[16] = tested on: Enterococcus faecalis ATCC 29212
Escherichia coli 078 = tested on: Escherichia coli 078
Escherichia coli K88 = tested on: Escherichia coli K88
Escherichia coli K99 = tested on: Escherichia coli K99
Escherichia coli UB1005 = tested on: Escherichia coli UB1005
[17] = tested on: Listeria monocytogenes CGMCC 1.1075
[18] = tested on: Pseudomonas aeruginosa ATCC 27853
[19] = tested on: Salmonella enterica subsp. enterica serovar Pullorum ATCC 7913
[20] = tested on: Salmonella enterica subsp. enterica serovar Typhimurium ATCC 14028
[21] = tested on: Salmonella typhimurium ATCC 7731
[22] = tested on: Staphylococcus aureus ATCC 25923
[23] = tested on: Staphylococcus aureus ATCC 43300
[24] = tested on: Staphylococcus epidermidis ATCC 12228
[25] = tested on: Escherichia coli DH5alpha
[26] = tested on: Pseudomonas aeruginosa NBRC 13275
[27] = tested on: Staphylococcus aureus NBRC 13276
[28] = tested on: Acinetobacter baumannii KCTC 2508
[29] = tested on: Bacillus subtilis KCTC 2217
[30] = tested on: Bacillus subtilis ATCC 11060
[31] = tested on: Escherichia coli CMCC 44102
[32] = tested on: Escherichia coli CVCC 1515
Escherichia coli ER2566 = tested on: Escherichia coli ER2566
[33] = tested on: Pseudomonas aeruginosa ATCC 10419
[34] = tested on: Pseudomonas aeruginosa ATCC 21625
[35] = tested on: Pseudomonas aeruginosa ATCC 21630
[36] = tested on: Salmonella enterica subsp. enterica serovar Pullorum C79-13
[37] = tested on: Salmonella enterica subsp. enterica serovar Typhimurium C77-31

Work on `CC(C)C[C@H](NC(=O)[C@H](CC(C)C)NC(=O)[C@@H](N)CCC(=O)O)C(=O)N[C@@H](CO)C(=O)N[C@@H](CCCCN)C(=O)N[C@H](C(=O)N[C@@H](CC(=O)O)C(=O)O)C(C)C` [ELLSKVD] yielded an MIC [1] of at least 159 µM, an MIC [2] of at least 159 µM and an MIC [3] of at least 159 µM. The MIC [4] was at least 159 µM, the MIC [5] was at least 159 µM and the MIC (Enterococcus faecalis A4) was at least 159 µM. For the same compound, the MIC [6] was at least 159 µM, the MIC [7] was at least 159 µM and the MIC [8] was 79.7 µM (≈ 64 µg/mL). The MIC [9] was at least 79.7 µM, the MIC [10] was over 159 µM and the MIC [11] was at least 159 µM. The MIC [12] was at least 79.7 µM, the MIC [13] was 79.7 µM (≈ 64 µg/mL) and the MIC (Staphylococcus aureus MR) was at least 79.7 µM.

Work on `CC[C@H](C)[C@H](NC(=O)[C@H](CCCCN)NC(=O)[C@H](Cc1ccccc1)NC(=O)[C@H](CCCN=C(N)N)NC(=O)[C@H](CCCCN)NC(=O)[C@@H](NC(=O)[C@@H](NC(=O)[C@H](Cc1ccccc1)NC(=O)CN)[C@@H](C)CC)C(C)C)C(=O)N[C@@H](CC(C)C)C(=O)N[C@H](C(=O)O)C(C)C` [GFIVKRFKILV] yielded an MIC (Bacillus subtilis 168 HT) of at least 97 µM and an MIC (Escherichia coli MG1655) of at least 97 µM.

`NCC(=O)N[C@@H](CCCN=C(N)N)C(=O)N[C@@H](Cc1c[nH]c2ccccc12)C(=O)N[C@@H](CCCN=C(N)N)C(=O)N[C@@H](Cc1c[nH]c2ccccc12)C(=O)N[C@@H](Cc1c[nH]c2ccccc12)C(=O)N[C@@H](Cc1c[nH]c2ccccc12)C(=O)N[C@@H](CCCN=C(N)N)C(=O)N[C@@H](Cc1c[nH]c2ccccc12)C(=O)N[C@@H](CCCN=C(N)N)C(=O)N[C@@H](Cc1c[nH]c2ccccc12)C(N)=O` [GRWRWWWRWRW] was tested, and the MIC (Acinetobacter baumannii) was 2 µM (≈ 3.63 µg/mL), the MIC [14] was 8 µM (≈ 14.5 µg/mL) and the MIC [15] was 8 µM (≈ 14.5 µg/mL). It also gave an MIC [16] of 2 µM (≈ 3.63 µg/mL), an MIC (Escherichia coli 078) of 4 µM (≈ 7.26 µg/mL) and an MIC (Escherichia coli K88) of 2 µM (≈ 3.63 µg/mL). For the same compound, the MIC (Escherichia coli K99) was 2 µM (≈ 3.63 µg/mL), the MIC (Escherichia coli UB1005) was 4 µM (≈ 7.26 µg/mL) and the MIC [17] was 2 µM (≈ 3.63 µg/mL). It also gave an MIC [18] of 8 µM (≈ 14.5 µg/mL), an MIC [10] of 4 µM (≈ 7.26 µg/mL) and an MIC [19] of 2 µM (≈ 3.63 µg/mL). The MIC [20] was 2 µM (≈ 3.63 µg/mL), the MIC [21] was 16 µM (≈ 29.1 µg/mL) and the MIC [22] was 2 µM (≈ 3.63 µg/mL). It also gave an MIC [23] of 2 µM (≈ 3.63 µg/mL) and an MIC [24] of 4 µM (≈ 7.26 µg/mL).

Compound `CC(=O)N[C@@H](CCCCN)C(=O)N[C@@H](Cc1ccccc1)C(=O)N[C@@H](CC(C)C)C(=O)N[C@@H](Cc1cnc[nH]1)C(=O)N[C@@H](CO)C(=O)N[C@@H](C)C(=O)N[C@@H](CCCCN)C(=O)N[C@@H](CCCCN)C(=O)N[C@@H](Cc1ccccc1)C(=O)NCC(=O)N[C@@H](CCCCN)C(=O)N[C@@H](C)C(=O)N[C@@H](Cc1ccccc1)C(=O)N[C@H](C(N)=O)C(C)C` [KFLHSAKKFGKAFV] has an MIC [25] of at least 200 µM, an MIC [26] of at least 200 µM and an MIC [27] of at least 400 µM.

For `CC(C)C[C@H](NC(=O)[C@H](CCCCN)NC(=O)[C@H](CCCCN)NC(=O)[C@H](CC(C)C)NC(=O)[C@H](CC(C)C)NC(=O)[C@@H]1CCCN1C(=O)[C@H](CCCCN)NC(=O)[C@H](CCCCN)NC(=O)[C@H](CC(C)C)NC(=O)[C@H](CC(C)C)NC(=O)[C@H](CCCCN)NC(=O)[C@H](CCCCN)NC(=O)[C@H](Cc1c[nH]c2ccccc12)NC(=O)[C@@H](N)CCCCN)C(N)=O` [KWKKLLKKPLLKKL], the MIC [28] was 12.5 µM (≈ 22 µg/mL), the MIC [29] was 3.13 µM (≈ 5.52 µg/mL) and the MIC [22] was 1.56 µM and > 0.78 µM.

`CC[C@H](C)[C@H](NC(=O)[C@H](CCCCN)NC(=O)[C@H](CCCCN)NC(=O)[C@H](CC(C)C)NC(=O)[C@H](CCCN=C(N)N)NC(=O)[C@H](Cc1c[nH]c2ccccc12)NC(=O)[C@H](CCCN=C(N)N)NC(=O)[C@@H](NC(=O)[C@H](CCCCN)NC(=O)[C@H](Cc1c[nH]c2ccccc12)NC(=O)[C@H](CCCN=C(N)N)NC(=O)[C@H](CC(C)C)NC(=O)[C@H](CCCN=C(N)N)NC(=O)[C@H](CCCN=C(N)N)NC(=O)[C@H](Cc1ccccc1)NC(=O)[C@@H](N)CCCN=C(N)N)[C@@H](C)O)C(=O)N[C@@H](Cc1c[nH]c2ccccc12)C(=O)N[C@@H](Cc1c[nH]c2ccccc12)C(=O)N1CCC[C@H]1C(=O)N[C@@H](Cc1ccccc1)C(=O)N[C@@H](CC(C)C)C(=O)N[C@@H](CCCN=C(N)N)C(=O)N[C@@H](CCCN=C(N)N)C(N)=O` [RFRRLRWKTRWRLKKIWWPFLRR] was tested, and the MIC [30] was 0.987 µM (≈ 3.3 µg/mL), the MIC [16] was 0.987 µM (≈ 3.3 µg/mL) and the MIC (Escherichia coli 078) was 4.01 µM (≈ 13.4 µg/mL). For the same compound, the MIC [31] was 2 µM (≈ 6.7 µg/mL), the MIC [32] was 0.509 µM (≈ 1.7 µg/mL) and the MIC (Escherichia coli ER2566) was 0.987 µM (≈ 3.3 µg/mL). The MIC (Escherichia coli K88) was 0.509 µM (≈ 1.7 µg/mL), the MIC (Escherichia coli UB1005) was 0.987 µM (≈ 3.3 µg/mL) and the MIC [33] was 2 µM (≈ 6.7 µg/mL). For the same compound, the MIC [34] was 2 µM (≈ 6.7 µg/mL), the MIC [35] was 4.01 µM (≈ 13.4 µg/mL) and the MIC [18] was 4.01 µM (≈ 13.4 µg/mL). For the same compound, the MIC [36] was 4.01 µM (≈ 13.4 µg/mL), the MIC [20] was 4.01 µM (≈ 13.4 µg/mL) and the MIC [37] was 2 µM (≈ 6.7 µg/mL). For the same compound, the MIC [22] was 7.99 µM (≈ 26.7 µg/mL), the MIC [13] was 2 µM (≈ 6.7 µg/mL) and the MIC [24] was 4.01 µM (≈ 13.4 µg/mL).
